# Measurements as given in patent publication US8586755B2, “Substituted nicotinamides as KCNQ2/3 modulators” (Grünenthal GmbH, priority 2009, dated 2013).
# Biological target: T1, KCNQ2/3 channels (Homo sapiens, UniProt O43525+O43526)
# T1 construct: expressed in transfected cells
# Experiment: Fluorescence assay using a voltage sensitive dye (fluorimetry)
# Type: cell-based
# Details: CHO-K1 cells expressing KCNQ2/3 channels; for EC50: agonistic activity; for Emax: retigabine 50 μM = 100%, read-out: Fluorimetry % efficacy (retigabine 50 μM = 100%)
# Procedure, shortened: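 CHO-K1 cells expressing human KCNQ2/3, loaded 45 min with red membrane-potential dye in ES buffer pH 7.4 (1 mM KCl), compound 30 min at room temperature. Fluorescence (525/560 nm) read before (F1) and at peak after KCl to 92 mM final (F2); agonism from F2/F1 change, EC50 fitted.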
SMILES,EC50,Emax
"O=C(NCCCc1cccnc1)c1cccnc1SCCCc1ccc(F)cc1 [compound 94, 2-[3-(4-Fluorophenyl)-propylsulfanyl]-N-(3-pyridine-3-yl-propyl)-pyridine-3-carboxylic acid amide]",2210 nM,181%
"O=C(NCCCc1ccncc1)c1cccnc1SCCCc1ccc(F)cc1 [compound 95, 2-[3-(4-Fluorophenyl)-propylsulfanyl]-N-(3-pyridine-4-yl-propyl)-pyridine-3-carboxylic acid amide]",2060 nM,147%
"CCCNC(=O)c1cccnc1SCCCc1ccc(F)cc1 [compound 96, 2-[3-(4-Fluorophenyl)-propylsulfanyl]-N-propyl-pyridine-3-carboxylic acid amide]",660 nM,194%
"O=C(NCc1cccs1)c1cccnc1SCCCc1cccnc1 [compound 98, 2-(3-Pyridin-3-yl-propylsulfanyl)-N-(thiophen-2-yl-methyl)-pyridine-3-carboxylic acid amide]",,29%
"O=C(NCc1cccs1)c1cccnc1SCCCCc1ccccc1 [compound 100, 2-(4-Phenyl-butylsulfanyl)-N-(thiophen-2-yl-methyl)-pyridine-3-carboxylic acid amide]",1590 nM,48%
"O=C(NCc1cccs1)c1cccnc1SCCCc1ccncc1 [compound 101, 2-(3-Pyridin-4-yl-propylsulfanyl)-N-(thiophen-2-yl-methyl)-pyridine-3-carboxylic acid amide]",,38%
"O=C(NCc1cccs1)c1cccnc1SCCCc1ccc2ccccc2c1 [compound 102, 2-(3-Naphthalen-2-yl-propylsulfanyl)-N-(thiophen-2-yl-methyl)-pyridine-3-carboxylic acid amide]",456 nM,111%
"O=C(NCc1cccs1)c1cccnc1SCCCc1cccs1 [compound 104, N-(Thiophen-2-yl-methyl)-2-(3-thiophen-2-yl-propylsulfanyl)-pyridine-3-carboxylic acid amide]",361 nM,87%
"CC(CCc1ccccc1)Sc1ncccc1C(=O)NCc1cccs1 (stereo not shown) [compound 105, 2-[(1-Methyl-3-phenyl-propyl)sulfanyl]-N-(thiophen-2-yl-methyl)-pyridine-3-carboxylic acid amide]",479 nM,166%

# The remaining lines, values ahead:
EC50,Emax,SMILES
134 nM,196%,"CCCCNC(=O)c1cccnc1SCCCc1ccc(F)cc1 [compound 97, N-Butyl-2-[3-(4-fluorophenyl)-propylsulfanyl]-pyridine-3-carboxylic acid amide]"
178 nM,70%,"Cc1ccc(CCCSc2ncccc2C(=O)NCc2cccs2)cc1 [compound 99, 2-[3-(p-Tolyl)-propylsulfanyl]-N-(thiophen-2-yl-methyl)-pyridine-3-carboxylic acid amide]"
111 nM,129%,"Cc1cccc(CCCSc2ncccc2C(=O)NCc2cccs2)c1 [compound 103, 2-[3-(m-Tolyl)-propylsulfanyl]-N-(thiophen-2-yl-methyl)-pyridine-3-carboxylic acid amide]"
191 nM,95%,"O=C(NCc1cccs1)c1cccnc1SCCCc1ccsc1 [compound 106, N-(Thiophen-2-yl-methyl)-2-(3-thiophen-3-yl-propylsulfanyl)-pyridine-3-carboxylic acid amide]"
165 nM,143%,"O=C(NCc1cccs1)c1cccnc1SC1CCCCC1Cc1ccccc1 (stereo not shown) [compound 108, 2-[(2-Benzyl-cyclohexyl)sulfanyl]-N-(thiophen-2-yl-methyl)-pyridine-3-carboxylic acid amide]"
180 nM,129%,"Cc1cc(CCCSc2ncccc2C(=O)NCc2cccs2)cc(C(F)(F)F)c1 [compound 109, 2-[3-[3-Methyl-5-(trifluoromethyl)-phenyl]-propylsulfanyl]-N-(thiophen-2-yl-methyl)-pyridine-3-carboxylic acid amide]"
